Measurements reported in ChEMBL document CHEMBL5380844, “Discovery of a Novel, Potent, Orally Active, and Safe Inhibitor Targeting Human Mitochondrial RNA Polymerase” (J Med Chem, 2023).
≈ marks a conversion by molar mass, not a printed value. Blank lines part the entries; values can stand above or below the compound they belong to. Calls of active or inactive are those of the source. The calls are words filed in the database; no cut-off is given here.

Assays:
[1] = test system: A2780; assay: Antitumor activity against human A2780 cells xenografted in BALB/c nude mouse model assessed as reduction in ND1 expression in liver at 100 mg/kg, po administered daily; assay type: functional, organism-based
[2] = Toxicity in Balb/c mouse assessed as effect on lung at 100 mg/kg by H and E staining based analysis; assay type: organism-based; conditions: in vivo
[3] = test system: DLD-1; assay: Antiproliferative activity against human DLD-1 cells incubated for 168 hrs by SRB method; assay type: functional, cell-based; conditions: DLD-1, 168 h
[4] = test system: A2780; assay: Antitumor activity against human A2780 cells xenografted in BALB/c nude mouse model assessed as reduction in tumor weight at 100 mg/kg, po administered daily and measured after 27 days relative to control; assay type: functional; parameters: scale not given: the % may be the effect or the level left; conditions: time 27 day
[5] = Toxicity in Balb/c mouse assessed as effect on heart at 100 mg/kg by H and E staining based analysis; assay type: organism-based; conditions: in vivo
[6] = test system: A2780; assay: Antitumor activity against human A2780 cells xenografted in BALB/c nude mouse model assessed as reduction in mitochondrial DNA transcript level at 100 mg/kg, po administered daily; assay type: functional, organism-based
[7] = Acute toxicity in Balb/c mouse assessed as effect on liver 100 mg/kg measured after 27 days by H and E staining based analysis; assay type: organism-based; conditions: in vivo, 648 h, time 27 day
[8] = test system: A2780; assay: Antitumor activity against human A2780 cells xenografted in BALB/c nude mouse model assessed as induction of tumor shrinkage 100 mg/kg by H and E staining based immunohistochemical analysis; assay type: functional, organism-based
[9] = Solubility in PBS at pH 7.4; assay type: physicochemical
[10] = test system: HepG2; assay: Antiproliferative activity against human HepG2 cells incubated for 168 hrs by SRB method; assay type: functional, cell-based; conditions: HepG2, 168 h
[11] = test system: A2780; assay: Antiproliferative activity against human A2780 cells incubated for 168 hrs by SRB method; assay type: functional, cell-based; conditions: A2780, 168 h
[12] = test system: IMR-90; assay: Antiproliferative activity against human IMR-90 cells incubated for 168 hrs by SRB method; assay type: functional, cell-based; conditions: IMR-90, 168 h
[13] = Antiproliferative activity against human PBMC cells incubated for 168 hrs by SRB method; assay type: functional, cell-based
[14] = Toxicity in Balb/c mouse assessed as effect on spleen at 100 mg/kg by H and E staining based analysis; assay type: organism-based; conditions: in vivo
[15] = test system: A549; assay: Antiproliferative activity against human A549 cells incubated for 168 hrs by SRB method; assay type: functional, cell-based; conditions: A549, 168 h
[16] = test system: NCI-H1975; assay: Antiproliferative activity against human NCI-H1975 cells incubated for 168 hrs by SRB method; assay type: functional, cell-based; conditions: NCI-H1975, 168 h
[17] = Toxicity in Balb/c mouse assessed as effect on kidney at 100 mg/kg by H and E staining based analysis; assay type: organism-based; conditions: in vivo
[18] = test system: NCI-H3122; assay: Antiproliferative activity against human NCI-H3122 cells incubated for 168 hrs by SRB method; assay type: functional, cell-based; conditions: NCI-H3122, 168 h
[19] = test system: MIA PaCa-2; assay: Antiproliferative activity against human MIA PaCa-2 cells incubated for 168 hrs by SRB method; assay type: functional, cell-based; conditions: MIA PaCa-2, 168 h
[20] = Acute toxicity in Balb/c mouse assessed as effect on kidney 100 mg/kg measured after 27 days by H and E staining based analysis; assay type: organism-based; conditions: in vivo, 648 h, time 27 day
[21] = Inhibition of ND1 transcript level in human A2780 cells at 500 nM measured after 12 hrs by RT-qPCR analysis relative to control; assay type: functional
[22] = test system: MDA-MB-231; assay: Antiproliferative activity against human MDA-MB-231 cells incubated for 168 hrs by SRB method; assay type: functional, cell-based; conditions: MDA-MB-231, 168 h
[23] = Toxicity in Balb/c mouse assessed as effect on liver at 100 mg/kg by H and E staining based analysis; assay type: organism-based; conditions: in vivo
[24] = test system: HeLa; assay: Antiproliferative activity against human HeLa cells incubated for 168 hrs by SRB method; assay type: functional, cell-based
[25] = test system: MDA-MB-468; assay: Antiproliferative activity against human MDA-MB-468 cells incubated for 168 hrs by SRB method; assay type: functional, cell-based; conditions: MDA-MB-468, 168 h
[26] = Volume of distribution at steady state in ICR mouse at 1 mg/kg, iv measured upto 24 hrs by LC-MS/MS analysis; assay type: ADME, organism-based; conditions: in vivo, read-out: Vdss
[27] = Half life in ICR mouse at 1 mg/kg, iv measured upto 24 hrs by LC-MS/MS analysis; assay type: ADME, organism-based; conditions: in vivo
[28] = AUC (0 to infinity) in ICR mouse at 1 mg/kg, iv measured upto 24 hrs by LC-MS/MS analysis; assay type: ADME, organism-based; parameters: time < 24 hrs, dose 1 mg/kg, route iv; conditions: in vivo
[29] = Clearance in ICR mouse at 1 mg/kg, iv measured upto 24 hrs by LC-MS/MS analysis; assay type: ADME, organism-based; conditions: in vivo
[30] = MRT in ICR mouse at 1 mg/kg, iv measured upto 24 hrs by LC-MS/MS analysis; assay type: ADME, organism-based; conditions: in vivo
[31] = Oral bioavailability in ICR mouse at 10 mg/kg measured upto 24 hrs by LC-MS/MS analysis; assay type: ADME, organism-based; conditions: in vivo
[32] = Cmax in ICR mouse at 1 mg/kg, iv measured upto 24 hrs by LC-MS/MS analysis; assay type: ADME, organism-based; parameters: time < 24 hrs, dose 1 mg/kg, route iv; conditions: in vivo
[33] = AUC (0 to t) in ICR mouse at 1 mg/kg, iv measured upto 24 hrs by LC-MS/MS analysis; assay type: ADME, organism-based; parameters: time < 24 hrs, dose 1 mg/kg, route iv; conditions: in vivo
[34] = Half life in ICR mouse at 10 mg/kg, po measured upto 24 hrs by LC-MS/MS analysis; assay type: ADME, organism-based; conditions: in vivo
[35] = Cmax in ICR mouse at 10 mg/kg, po measured upto 24 hrs by LC-MS/MS analysis; assay type: ADME, organism-based; parameters: time < 24 hrs, dose 10 mg/kg, route po; conditions: in vivo
[36] = AUC (0 to t) in ICR mouse at 10 mg/kg, po measured upto 24 hrs by LC-MS/MS analysis; assay type: ADME, organism-based; parameters: dose 10 mg/kg, time < 24 hrs, route po; conditions: in vivo

Structure (SMILES): C[C@@H](Oc1ccc2c(-c3ccc(F)cc3Cl)cc(=O)oc2c1)C(=O)N1CCC[C@H](C(=O)O)C1
Activity [1]: Active
Activity [2]: Non-Toxic
IC50 [3]: 142 nM
Activity [4]: 56.75%
Activity [5]: Non-Toxic
Activity [6]: Active
Activity [7]: Non-Toxic
Activity [8]: Active
solubility [9]: 6.49 µg/mL (≈ 13.7 µM)
IC50 [10]: 168 nM
IC50 [11]: 138 nM
IC50 [12]: > 50000 nM
IC50 [13]: > 50000 nM
Activity [14]: Non-Toxic
IC50 [15]: 881 nM
IC50 [16]: 221 nM
Activity [17]: Non-Toxic
IC50 [18]: > 10000 nM
IC50 [19]: 152 nM
Activity [20]: Non-Toxic
inhibition at 0.5 µM [21]: 25%
IC50 [22]: > 10000 nM
Activity [23]: Non-Toxic
IC50 [24]: 1050 nM
IC50 [25]: 189 nM

Vd [26]: 5.84 L/kg
IC50 [11]: 27 nM
half-life [27]: 1.61 h
AUC(0-inf) [28]: 351 ng·h/mL
clearance [29]: 47.6 mL/min/kg
MRT [30]: 2.05 h
bioavailability [31]: 13.7%
Cmax [32]: 234 ng/mL
AUC(0-t) at 24 h [33]: 294 ng·h/mL
half-life [34]: 2.67 h
Cmax [35]: 66.6 ng/mL
AUC(0-t) at 24 h [36]: 403 ng·h/mL
Structure (SMILES): Cc1ccc(-c2cc(=O)oc3cc(O[C@H](C)C(=O)N4CC5CCC(C4)N5)ccc23)c(C)c1
inhibition at 0.5 µM [21]: 7%
